Source: patent publication US20150344426A1, “COMPOUNDS AND THERAPEUTIC USES THEREOF” (ALZHEIMER'S INSTITUTE OF AMERICA, INC., priority 2012, published 2015)

Columns and labels:
[1] = Stability in mouse plasma; type: in vitro ADME; details: read-out: Mouse Plasma t1/2
Protocol: (§1) Relative stability of Example Compound Nos. 1 through 60 in mouse plasma and mouse liver microsomal preparations.
(§2) Certain Example Compounds were each added to a final concentration of 1 μM to 1 mL of each of mouse plasma and mouse liver microsomal preparations (with and without 1 mM NADPH). Stability assays were run in duplicate and were sampled at 0, 5, 15, 30, 60 and 120 minutes as follows: one hundred microliter aliquots of samples were removed at the specified sampling times, and the reaction was quenched with 400 μL of acetonitrile.
(§3) Samples were analyzed by HPLC-ESI-MS/MS by measuring the peak area of both the starting Example Compound and parent compound (i.e., either Parent Compound A or Parent Compound B) that were created by removal of the Prodrug Moiety (as defined in Section 6 herein).

[2] = Stability in mouse liver microsomal preparations; type: in vitro ADME; details: liver microsomes, with and without 1 mM NADPH (not said which), read-out: Mouse Liver Microsomes t1/2
Protocol: as §1, §2, §3

[3] = Stability assessment / semi-quantitative hygroscopicity in a relative humidity (RH) chamber; type: physicochemical; details: solid in RH chamber; morphology and parent:prodrug composition
Protocol: “ND” in Table 2 refers to “No Data”. Purity was determined by HPLC. Melting point was determined by differential scanning calorimetry (“DSC”), and semi-quantitative hygroscopicity was determined in a relative humidity (“RH”) chamber.

[4] = tested on: HT1080 human fibrosarcoma cancer cells; test: Anti-tumor activity in HT1080 human fibrosarcoma xenograft with twice daily dosing; type: in vivo; details: for anti-tumor activity in the HT1080 xenograft model (summary statement): administered orally, twice daily; for animals euthanized due to tumor volume exceeding 1,500 mm^3 / animals died: Example Compound 42 study, cohort of ten
Protocol: One million HT1080 cells were implanted subcutaneously in the right flank of female nude mice (Crl:NU-Fox1^nu). When the median tumor volume (MTV) was approximately 209 mm^3, mice were randomized into four cohorts of ten animals. […] All cohorts were dosed twice daily for 7 days. The mice were observed daily for mortality and signs of toxicity. Tumor volumes and body weights were determined from Days 1 to 22. The results are depicted in FIG. 4.

[5] = Example Compounds 44/45 study, 12 mg/kg twice daily for 7 days, Day 9

| Compound | half-life at 1 µM [1] [min] | half-life at 1 µM [2] [min] | Stability at 60° C. and 75% RH [3] | Stability at 40° C. and 75% RH [3] | further results |
| --- | --- | --- | --- | --- | --- |
| O=C(NCc1ccc[n+](COC(=O)c2cccnc2)c1)Nc1ccc(OCCc2ccccc2-c2ccccc2)cc1 [Example 53, 3-{[({4-[2-(Biphenyl-2-yl)ethoxy]phenyl)carbamoyl)amino]methyl}-1-{[(pyridin-3-ylcarbonyl)oxy]methyl}pyridinium] |  |  | All prodrug decomposed to parent at 24 h |  |  |
| O=C(NCc1ccc[n+](COC(=O)c2ccccc2O)c1)Nc1ccc(OCCc2ccccc2-c2ccccc2)cc1 [Example 55, 3-{[({4-[2-(Biphenyl-2-yl)ethoxy]phenyl}carbamoyl)amino]methyl}-1-{[(2-hydroxybenzoyl)oxy]methyl}pyridinium] |  |  | Deliquesced at 4 h | Deliquesced at 4 h |  |
| COC(=O)CCNC(=O)OC[n+]1cccc(CNC(=O)Nc2ccc(OCCc3ccccc3-c3ccccc3)cc2)c1 [Example 49, Methyl N-{[(3-{[({4-[2-(biphenyl-2-yl)ethoxy]phenyl}carbamoyl)amino]methyl}pyridinium-1-yl)methoxy]carbonyl}-beta-alaninate] |  |  | Deliquesced at 7 days | Deliquesced at 24 hrs No decomposition observed |  |
| CC(OC(=O)C(C)(C)C)[n+]1cccc(CNC(=O)Nc2ccc(OCCc3ccccc3-c3ccccc3)cc2)c1 (centres unmarked) [Example 39, 3-{[({4-[2-(Biphenyl-2-yl)ethoxy]phenyl}carbamoyl)amino]methyl}-1-{1-[(2,2-dimethylpropanoyl)oxy]ethyl}pyridinium] | 27 | 113 | Deliquesced at 2 Hr No change in composition | Deliquesced at 2 Hr No change in composition |  |
| COC(=O)CNC(=O)OC[n+]1cccc(CNC(=O)Nc2ccc(OCCc3ccccc3-c3ccccc3)cc2)c1 [Example 48, Methyl N-{[(3-{[({4-[2-(biphenyl-2-yl)ethoxy]phenyl}carbamoyl)amino]methyl}pyridinium-1-yl)methoxy]carbonyl}glycinate] |  |  | Deliquesced at 2 hr No decomposition observed | Deliquesced at 2 hr No decomposition observed |  |
| CC(=O)OC[C@@H]1CCCN1C(=O)OC[n+]1cccc(CNC(=O)Nc2ccc(OCCc3ccccc3-c3ccccc3)cc2)c1 [Example 45, 1-{[({(2S)-2-[(Acetyloxy)methyl]pyrrolidin-1-yl}carbonyl)oxy]methyl}-3-{[({4-[2-(biphenyl-2-yl)ethoxy]phenyl}carbamoyl)amino]methyl}pyridinium] | > 5 | > 5 |  |  | MTV decrease [4, 5]: 54%; tumor regression [4, 5]: 54%; tumor growth inhibition relative to vehicle ([4]; Example Compounds 44/45 study, 12 mg/kg twice daily for 7 days, Day 22): 91%; MTV increase ([4]; Example Compounds 44/45 study, 12 mg/kg twice daily for 7 days, end of the study, Day 22): 33%; anti-tumor activity in the HT1080 xenograft model (summary statement) ([4]; all doses tested): significant anti-tumor activity; Tolerability ([4]; xenograft mice, all doses tested, orally twice daily): well tolerated |
| CC(=O)OC(C(C)C)[n+]1cccc(CNC(=O)Nc2ccc(OCCc3ccccc3-c3ccccc3)cc2)c1 (centres unmarked) [Example 38, 1-[1-(Acetyloxy)-2-methylpropyl]-3-{[({4-[2-(biphenyl-2-yl)ethoxy]phenyl}carbamoyl)amino]methyl}pyridinium] | > 5 | 30.9 | Deliquesced at 4 days | No change in morphology at 7 days |  |
| O=C(NCc1ccc[n+](COC(=O)N2CCOCC2)c1)Nc1ccc(OCCc2ccccc2-c2ccccc2)cc1 [Example 60, 3-{[({4-[2-(Biphenyl-2-yl)ethoxy]phenyl}carbamoyl)amino]methyl}-1-{[(morpholin-4-ylcarbonyl)oxy]methyl}pyridinium] |  |  | Deliquesced at 4 h | Deliquesced at 4 h |  |
| COC(=O)CCC(=O)OC[n+]1cccc(CNC(=O)Nc2ccc(OCCc3ccccc3-c3ccccc3)cc2)c1 [Example 54, 3-{[({4-[2-(Biphenyl-2-yl)ethoxy]phenyl}carbamoyl)amino]methyl}-1-{[(4-methoxy-4-oxobutanoyl)oxy]methyl}pyridinium] |  |  | Deliquesced at 4 days |  |  |
| CC(C)C(=O)OC(C)[n+]1cccc(CNC(=O)Nc2ccc(OCCc3ccccc3-c3ccccc3)cc2)c1 (centres unmarked) [Example 47, 3-{[({4-[2-(Biphenyl-2-yl)ethoxy]phenyl}carbamoyl)amino]methyl}-1-{1-[(2-methylpropanoyl)oxy]ethyl}pyridinium] |  |  | Approximately 45:55 parent to prodrug observed after 14 days | No change in morphology at 14 days, only prodrug observed |  |
| COC(=O)CN(C)C(=O)OC[n+]1cccc(CNC(=O)Nc2ccc(OCCc3ccccc3-c3ccccc3)cc2)c1 [Example 50, Methyl N-{[(3-{[({4-[2-(biphenyl-2-yl)ethoxy]phenyl}carbamoyl)amino]methyl}pyridinium-1-yl)methoxy]carbonyl}-N-methylglycinate] |  |  | Oiled out at 2 days No decomposition observed | No change in morphology at 14 days, only prodrug observed |  |
| O=C(NCc1ccc[n+](COC(=O)N2CCCC2)c1)Nc1ccc(OCCc2ccccc2-c2ccccc2)cc1 [Example 59, 3-{[({4-[2-(Biphenyl-2-yl)ethoxy]phenyl}carbamoyl)amino]methyl}-1-{[(pyrrolidin-1-ylcarbonyl)oxy]methyl}pyridinium] |  |  | Deliquesced at 4 h |  |  |
| CC(OC(=O)c1ccccc1)[n+]1cccc(CNC(=O)Nc2ccc(OCCc3ccccc3-c3ccccc3)cc2)c1 (centres unmarked) [Example 42, 1-[1-(Benzoyloxy)ethyl]-3-{[({4-[2-(biphenyl-2-yl)ethoxy]phenyl}carbamoyl)amino]methyl}pyridinium] |  |  | Deliquesced at 13 days, approx 40:60 parent to prodrug observed | No change in morphology at 14 days, only prodrug observed | MTV increase ([4]; 4 mg/kg twice daily for 7 days, Day 8): 131%; tumor growth inhibition ([4]; 4 mg/kg twice daily for 7 days, end of dosing, Day 8): 21%; MTV increase ([4]; 4 mg/kg twice daily for 7 days, end of the study, Day 15): 469%; MTV increase ([4]; 6 mg/kg twice daily for 7 days, Day 8): 87%; tumor growth inhibition ([4]; 6 mg/kg twice daily for 7 days, end of dosing, Day 8): 48%; MTV increase ([4]; 6 mg/kg twice daily for 7 days, end of the study, Day 15): 215%; MTV decrease ([4]; 8 mg/kg twice daily for 7 days, Day 8): 4%; tumor regression ([4]; 8 mg/kg twice daily for 7 days, end of dosing, Day 8): 4%; MTV increase ([4]; 8 mg/kg twice daily for 7 days, end of the study, Day 15): 449%; MTV decrease ([4]; 12 mg/kg twice daily for 7 days, Day 8): 38%; tumor regression ([4]; 12 mg/kg twice daily for 7 days, end of dosing, Day 8): 38%; MTV increase ([4]; 12 mg/kg twice daily for 7 days, end of the study, Day 15): 236%; animals euthanized due to tumor volume exceeding 1,500 mm^3 ([4]; 4 mg/kg): three; animals died ([4]; 6 mg/kg): One; animals euthanized due to tumor volume exceeding 1,500 mm^3 ([4]; 6 mg/kg): one; animals died ([4]; 8 mg/kg): One; animals euthanized due to tumor volume exceeding 1,500 mm^3 ([4]; 8 mg/kg): two; animals died ([4]; 12 mg/kg): One; anti-tumor activity in the HT1080 xenograft model (summary statement) ([4]; all doses tested): dose-dependent anti-tumor activity |

Continued, in another order:

| half-life at 1 µM [1] [min] | half-life at 1 µM [2] [min] | Compound | Stability at 60° C. and 75% RH [3] | Stability at 40° C. and 75% RH [3] | further results |
| --- | --- | --- | --- | --- | --- |
| 87.2 | 1250 | O=C(NCc1ccc[n+](COC(=O)N2CCC[C@H]2CO)c1)Nc1ccc(OCCc2ccccc2-c2ccccc2)cc1 [Example 46, 3-{[({4-[2-(Biphenyl-2-yl)ethoxy]phenyl}carbamoyl)amino]methyl}-1-[({[(2S)-2-(hydroxymethyl)pyrrolidin-1-yl]carbonyl}oxy)methyl]pyridinium] |  |  |  |
| 29.8 | 59.1 | CC(C)C(OC(=O)c1ccccc1)[n+]1cccc(CNC(=O)Nc2ccc(OCCc3ccccc3-c3ccccc3)cc2)c1 (centres unmarked) [Example 43, 1-[1-(Benzoyloxy)-2-methylpropyl]-3-{[({4-[2-(biphenyl-2-yl)ethoxy]phenyl}carbamoyl)amino]methyl} pyridinium] | Approximately 5:95 parent to prodrug observed at 14 days | No change in morphology at 14 days, only prodrug observed |  |
| < 5 | < 5 | CCCC(=O)OC[n+]1cccc(CNC(=O)Nc2ccc(OCCc3ccccc3-c3ccccc3)cc2)c1 [Example 41, 3-{[({4-[2-(Biphenyl-2-yl)ethoxy]phenyl}carbamoyl)amino]methyl}-1-[(butanoyloxy)methyl]pyridinium] | Deliquesced at 24 hr No change in composition | No change in morphology at 14 days, only prodrug observed |  |
